System: 817829-284-R-J1-PDC complex spheroids, viability
Assay: Anticancer human tumor 817829-284-R-J1-PDC patient-derived colon adenocarcinoma cell line growth inhibition [GQUAD]
Conditions: for IC50: curve of first compound; for viability, T/C: stronger effect = lower value; active = viability on the fitted dose curve at most 10% of control; inactive = the rest
Outline: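 Multi-cell-type spheroids of tumor cells with HUVEC and mesenchymal stem cells, treated with drug combinations. Concentrations descend in half-log steps from near clinical Cmax, or from 10 microM where Cmax is unknown; viability read-out.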
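Note: spheroids exposed to agents for 7 days before readout.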
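Throughout, for viability, T/C: percent viability relative to DMSO vehicle control taken as 100%.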

COc1ncnc(C2CC2)c1-c1ncc2cnn(Cc3ccc(-c4nc(C(F)(F)F)cn4C(C)C)cc3)c2n1 + Cc1cnc(CNC(=O)c2c(=O)c3ccc(N4CCCN(C)CC4)nc3n3c2sc2ccccc23)cn1
> 10000 nM: IC50 (second compound 0.0316 µM)
< 31.6 nM: IC50 (second compound 0.1 µM) | IC50 (second compound 0.316 µM) | IC50 (second compound 1 µM) | IC50 (second compound 3.16 µM) | IC50 (second compound 10 µM)
inactive: viability, T/C (second compound 0.0316 µM, first compound 0.0316 µM) 63.5% | viability, T/C (second compound 0.0316 µM, first compound 0.1 µM) 51.9% | viability, T/C (second compound 0.0316 µM, first compound 0.316 µM) 55.5% | viability, T/C (second compound 0.0316 µM, first compound 1 µM) 43.7% | viability, T/C (second compound 0.0316 µM, first compound 3.16 µM) 66% | viability, T/C (second compound 0.0316 µM, first compound 10 µM) 64.1% | viability, T/C (second compound 0.1 µM, first compound 0.0316 µM) 28.1% | viability, T/C (second compound 0.1 µM, first compound 0.1 µM) 31.1% | viability, T/C (second compound 0.1 µM, first compound 0.316 µM) 28.2% | viability, T/C (second compound 0.1 µM, first compound 1 µM) 29.5% | viability, T/C (second compound 0.1 µM, first compound 3.16 µM) 28.4% | viability, T/C (second compound 0.1 µM, first compound 10 µM) 33.2% | viability, T/C (second compound 0.316 µM, first compound 0.0316 µM) 19.2% | viability, T/C (second compound 0.316 µM, first compound 0.1 µM) 26.4% | viability, T/C (second compound 0.316 µM, first compound 0.316 µM) 20.8% | viability, T/C (second compound 0.316 µM, first compound 1 µM) 25.4% | viability, T/C (second compound 0.316 µM, first compound 3.16 µM) 25.6% | viability, T/C (second compound 0.316 µM, first compound 10 µM) 22.8% | viability, T/C (second compound 1 µM, first compound 0.0316 µM) 19.3% | viability, T/C (second compound 1 µM, first compound 0.1 µM) 22.8% | viability, T/C (second compound 1 µM, first compound 0.316 µM) 21.1% | viability, T/C (second compound 1 µM, first compound 1 µM) 20.8% | viability, T/C (second compound 1 µM, first compound 3.16 µM) 22.1% | viability, T/C (second compound 1 µM, first compound 10 µM) 18% | viability, T/C (second compound 3.16 µM, first compound 0.0316 µM) 16.9% | viability, T/C (second compound 3.16 µM, first compound 0.1 µM) 18.9% | viability, T/C (second compound 3.16 µM, first compound 0.316 µM) 17.7% | viability, T/C (second compound 3.16 µM, first compound 1 µM) 19.4% | viability, T/C (second compound 3.16 µM, first compound 3.16 µM) 21.6% | viability, T/C (second compound 3.16 µM, first compound 10 µM) 18.1%
active: viability, T/C (second compound 10 µM, first compound 0.0316 µM) 0.12% | viability, T/C (second compound 10 µM, first compound 0.1 µM) 0.17% | viability, T/C (second compound 10 µM, first compound 0.316 µM) 0.18% | viability, T/C (second compound 10 µM, first compound 1 µM) 0.16% | viability, T/C (second compound 10 µM, first compound 3.16 µM) 0.21% | viability, T/C (second compound 10 µM, first compound 10 µM) 0.22%

— PubChem BioAssay AID2060503 (Molecular Pharmacology Branch, DTP, NCI, 2025)
